Reference: PubChem BioAssay (NCI)
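1) Cells in 96-well plates. 2) Compound, 48 h, 5 concentrations. 3) Linear interpolation between surrounding doses. 4) Unreached endpoint = highest concentration. Abbreviation: GI50, concentration required for 50% inhibition of growth. TGI is the concentration that stops growth completely.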

Legend:
Assay in all cases: growth of human tumour cells (NCI), 48 h
786-0 renal = tested on: 786-0 renal
A498 renal = tested on: A498 renal
A549 NSCLC = tested on: A549 NSCLC
ACHN renal = tested on: ACHN renal
BT-549 breast = tested on: BT-549 breast
CAKI-1 renal = tested on: CAKI-1 renal
CCRF-CEM leukemia = tested on: CCRF-CEM leukemia
COLO 205 colon = tested on: COLO 205 colon
DU-145 prostate = tested on: DU-145 prostate
EKVX NSCLC = tested on: EKVX NSCLC
HCC-2998 colon = tested on: HCC-2998 colon
HCT-116 colon = tested on: HCT-116 colon
HCT-15 colon = tested on: HCT-15 colon
HL-60(TB) leukemia = tested on: HL-60(TB) leukemia
HOP-62 NSCLC = tested on: HOP-62 NSCLC
HOP-92 NSCLC = tested on: HOP-92 NSCLC
HS 578T breast = tested on: HS 578T breast
HT29 colon = tested on: HT29 colon
IGROV1 ovarian = tested on: IGROV1 ovarian
K-562 leukemia = tested on: K-562 leukemia
KM12 colon = tested on: KM12 colon
LOX IMVI melanoma = tested on: LOX IMVI melanoma
M14 melanoma = tested on: M14 melanoma
MALME-3M melanoma = tested on: MALME-3M melanoma
MCF7 breast = tested on: MCF7 breast
MDA-MB-231 breast = tested on: MDA-MB-231 breast
MDA-MB-435 = tested on: MDA-MB-435
MOLT-4 leukemia = tested on: MOLT-4 leukemia
NCI-H226 lung = tested on: NCI-H226 lung
NCI-H23 lung = tested on: NCI-H23 lung
NCI-H460 lung = tested on: NCI-H460 lung
NCI-H522 lung = tested on: NCI-H522 lung
NCI/ADR-RES ovarian = tested on: NCI/ADR-RES ovarian
OVCAR-3 ovarian = tested on: OVCAR-3 ovarian
OVCAR-5 ovarian = tested on: OVCAR-5 ovarian
OVCAR-8 ovarian = tested on: OVCAR-8 ovarian
PC-3 prostate = tested on: PC-3 prostate
RPMI-8226 leukemia = tested on: RPMI-8226 leukemia
RXF 393 renal = tested on: RXF 393 renal
SF-268 CNS = tested on: SF-268 CNS
SF-295 CNS = tested on: SF-295 CNS
SF-539 CNS = tested on: SF-539 CNS
SK-MEL-2 melanoma = tested on: SK-MEL-2 melanoma
SK-MEL-28 melanoma = tested on: SK-MEL-28 melanoma
SK-MEL-5 melanoma = tested on: SK-MEL-5 melanoma
SK-OV-3 ovarian = tested on: SK-OV-3 ovarian
SN12C renal = tested on: SN12C renal
SNB-19 CNS = tested on: SNB-19 CNS
SNB-75 CNS = tested on: SNB-75 CNS
SR leukemia = tested on: SR leukemia
SW-620 colon = tested on: SW-620 colon
T-47D breast = tested on: T-47D breast
TK-10 renal = tested on: TK-10 renal
U251 CNS = tested on: U251 CNS
UACC-257 melanoma = tested on: UACC-257 melanoma
UACC-62 melanoma = tested on: UACC-62 melanoma
UO-31 renal = tested on: UO-31 renal

In the case of `Clc1cc2c(c(CSc3nc4ccccc4n4cccc34)c1)OCOC2`, the GI50 (786-0 renal) is reported as 51.6 µM, the TGI (786-0 renal) is reported as > 100 µM and the GI50 (A498 renal) is reported as 22.6 µM. For the same compound, the TGI (A498 renal) was > 100 µM, the GI50 (A549 NSCLC) was > 100 µM and the TGI (A549 NSCLC) was > 100 µM. The GI50 (ACHN renal) was 67.3 µM, the TGI (ACHN renal) was > 100 µM and the GI50 (BT-549 breast) was 78.1 µM. The TGI (BT-549 breast) was > 100 µM, the GI50 (CAKI-1 renal) was > 100 µM and the TGI (CAKI-1 renal) was > 100 µM. For the same compound, the GI50 (CCRF-CEM leukemia) was > 100 µM, the TGI (CCRF-CEM leukemia) was > 100 µM and the GI50 (COLO 205 colon) was > 100 µM. For the same compound, the TGI (COLO 205 colon) was > 100 µM, the GI50 (DU-145 prostate) was > 100 µM and the TGI (DU-145 prostate) was > 100 µM. For the same compound, the GI50 (EKVX NSCLC) was 29.6 µM, the TGI (EKVX NSCLC) was > 100 µM and the GI50 (HCC-2998 colon) was > 100 µM. The TGI (HCC-2998 colon) was > 100 µM, the GI50 (HCT-116 colon) was > 100 µM and the TGI (HCT-116 colon) was > 100 µM. The GI50 (HCT-15 colon) was 2.7 µM, the TGI (HCT-15 colon) was > 100 µM and the GI50 (HL-60(TB) leukemia) was > 100 µM. The TGI (HL-60(TB) leukemia) was > 100 µM, the GI50 (HOP-62 NSCLC) was 10.3 µM and the TGI (HOP-62 NSCLC) was 31.8 µM. The GI50 (HOP-92 NSCLC) was 5.36 µM, the TGI (HOP-92 NSCLC) was 35.5 µM and the GI50 (HS 578T breast) was 5.61 µM. The TGI (HS 578T breast) was 45 µM, the GI50 (HT29 colon) was > 100 µM and the TGI (HT29 colon) was > 100 µM. The GI50 (IGROV1 ovarian) was 4.26 µM, the TGI (IGROV1 ovarian) was > 100 µM and the GI50 (K-562 leukemia) was > 100 µM. For the same compound, the TGI (K-562 leukemia) was > 100 µM, the GI50 (KM12 colon) was > 100 µM and the TGI (KM12 colon) was > 100 µM. The GI50 (LOX IMVI melanoma) was > 100 µM, the TGI (LOX IMVI melanoma) was > 100 µM and the GI50 (M14 melanoma) was > 100 µM. For the same compound, the TGI (M14 melanoma) was > 100 µM, the GI50 (MALME-3M melanoma) was 29.6 µM and the TGI (MALME-3M melanoma) was > 100 µM. For the same compound, the GI50 (MCF7 breast) was 0.501 µM, the TGI (MCF7 breast) was > 100 µM and the GI50 (MDA-MB-231 breast) was 12.7 µM. The TGI (MDA-MB-231 breast) was > 100 µM, the GI50 (MDA-MB-435) was > 100 µM and the TGI (MDA-MB-435) was > 100 µM. The GI50 (MOLT-4 leukemia) was > 100 µM, the TGI (MOLT-4 leukemia) was > 100 µM and the GI50 (NCI-H226 lung) was 14.3 µM. The TGI (NCI-H226 lung) was > 100 µM, the GI50 (NCI-H23 lung) was 26.3 µM and the TGI (NCI-H23 lung) was > 100 µM. The GI50 (NCI-H460 lung) was > 100 µM, the TGI (NCI-H460 lung) was > 100 µM and the GI50 (NCI-H522 lung) was 23.4 µM. For the same compound, the TGI (NCI-H522 lung) was > 100 µM, the GI50 (NCI/ADR-RES ovarian) was 61 µM and the TGI (NCI/ADR-RES ovarian) was > 100 µM. The GI50 (OVCAR-3 ovarian) was 7.5 µM, the TGI (OVCAR-3 ovarian) was > 100 µM and the GI50 (OVCAR-5 ovarian) was > 100 µM. For the same compound, the TGI (OVCAR-5 ovarian) was > 100 µM, the GI50 (OVCAR-8 ovarian) was 20.6 µM and the TGI (OVCAR-8 ovarian) was > 100 µM. The GI50 (PC-3 prostate) was > 100 µM, the TGI (PC-3 prostate) was > 100 µM and the GI50 (RPMI-8226 leukemia) was > 100 µM. For the same compound, the TGI (RPMI-8226 leukemia) was > 100 µM, the GI50 (RXF 393 renal) was 15.2 µM and the TGI (RXF 393 renal) was 61.9 µM. For the same compound, the GI50 (SF-268 CNS) was 31.3 µM, the TGI (SF-268 CNS) was > 100 µM and the GI50 (SF-295 CNS) was 11.7 µM. For the same compound, the TGI (SF-295 CNS) was 39.9 µM, the GI50 (SF-539 CNS) was 22.9 µM and the TGI (SF-539 CNS) was > 100 µM. The GI50 (SK-MEL-2 melanoma) was 13.6 µM, the TGI (SK-MEL-2 melanoma) was 44.9 µM and the GI50 (SK-MEL-28 melanoma) was > 100 µM. For the same compound, the TGI (SK-MEL-28 melanoma) was > 100 µM, the GI50 (SK-MEL-5 melanoma) was > 100 µM and the TGI (SK-MEL-5 melanoma) was > 100 µM. The GI50 (SK-OV-3 ovarian) was 13.7 µM, the TGI (SK-OV-3 ovarian) was 45 µM and the GI50 (SN12C renal) was > 100 µM. For the same compound, the TGI (SN12C renal) was > 100 µM, the GI50 (SNB-19 CNS) was 41 µM and the TGI (SNB-19 CNS) was > 100 µM. For the same compound, the GI50 (SNB-75 CNS) was 6.48 µM, the TGI (SNB-75 CNS) was 26.8 µM and the GI50 (SR leukemia) was > 100 µM. The TGI (SR leukemia) was > 100 µM, the GI50 (SW-620 colon) was > 100 µM and the TGI (SW-620 colon) was > 100 µM. The GI50 (T-47D breast) was 0.596 µM, the TGI (T-47D breast) was 9.33 µM and the GI50 (TK-10 renal) was 3.49 µM. For the same compound, the TGI (TK-10 renal) was 60.3 µM, the GI50 (U251 CNS) was 17.1 µM and the TGI (U251 CNS) was > 100 µM. The GI50 (UACC-257 melanoma) was > 100 µM, the TGI (UACC-257 melanoma) was > 100 µM and the GI50 (UACC-62 melanoma) was 76.5 µM. The TGI (UACC-62 melanoma) was > 100 µM, the GI50 (UO-31 renal) was > 100 µM and the TGI (UO-31 renal) was > 100 µM.
